Measured values reported in PubChem BioAssay (NCI).
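At the GI50, growth is halved. The concentration for full growth arrest is given as TGI.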

Key:
Assay in all cases: NCI anticancer screen, dose series, 384-well format
NCI-H23 lung = test system: NCI-H23 lung
SK-MEL-28 melanoma = test system: SK-MEL-28 melanoma
NCI-H522 lung = test system: NCI-H522 lung
MDA-MB-468 breast = test system: MDA-MB-468 breast
OVCAR-8 ovarian = test system: OVCAR-8 ovarian
KM12 colon = test system: KM12 colon
NCI-H226 lung = test system: NCI-H226 lung
A549 NSCLC = test system: A549 NSCLC
ACHN renal = test system: ACHN renal
UACC-62 melanoma = test system: UACC-62 melanoma
MDA-MB-231 breast = test system: MDA-MB-231 breast
786-0 renal = test system: 786-0 renal
HCT-116 colon = test system: HCT-116 colon
K-562 leukemia = test system: K-562 leukemia
SNB-19 CNS = test system: SNB-19 CNS
LOX IMVI melanoma = test system: LOX IMVI melanoma
IGROV1 ovarian = test system: IGROV1 ovarian
COLO 205 colon = test system: COLO 205 colon
OVCAR-4 ovarian = test system: OVCAR-4 ovarian
DU-145 prostate = test system: DU-145 prostate
MALME-3M melanoma = test system: MALME-3M melanoma
UO-31 renal = test system: UO-31 renal
MCF7 breast = test system: MCF7 breast
NCI-H460 NSCLC = test system: NCI-H460 NSCLC
A498 renal = test system: A498 renal
NCI-H322M lung = test system: NCI-H322M lung
SR leukemia = test system: SR leukemia
SF-295 CNS = test system: SF-295 CNS
T-47D breast = test system: T-47D breast
HS 578T breast = test system: HS 578T breast
NCI/ADR-RES ovarian = test system: NCI/ADR-RES ovarian
HOP-62 NSCLC = test system: HOP-62 NSCLC
SF-539 CNS = test system: SF-539 CNS
MOLT-4 leukemia = test system: MOLT-4 leukemia
CCRF-CEM leukemia = test system: CCRF-CEM leukemia
HOP-92 NSCLC = test system: HOP-92 NSCLC
HCT-15 colon = test system: HCT-15 colon
TK-10 renal = test system: TK-10 renal
PC-3 prostate = test system: PC-3 prostate
SK-MEL-5 melanoma = test system: SK-MEL-5 melanoma
OVCAR-3 ovarian = test system: OVCAR-3 ovarian
RPMI-8226 leukemia = test system: RPMI-8226 leukemia
EKVX NSCLC = test system: EKVX NSCLC
HT29 colon = test system: HT29 colon
BT-549 breast = test system: BT-549 breast
U251 glioblastoma = test system: U251 glioblastoma
HCC-2998 colon = test system: HCC-2998 colon
M14 melanoma = test system: M14 melanoma
HL-60(TB) leukemia = test system: HL-60(TB) leukemia
SNB-75 CNS = test system: SNB-75 CNS
CAKI-1 renal = test system: CAKI-1 renal
MDA-MB-435 melanoma = test system: MDA-MB-435 melanoma
SN12C renal = test system: SN12C renal
SK-OV-3 ovarian = test system: SK-OV-3 ovarian
SW-620 colon = test system: SW-620 colon
UACC-257 melanoma = test system: UACC-257 melanoma
SF-268 CNS = test system: SF-268 CNS
RXF 393 renal = test system: RXF 393 renal
OVCAR-5 ovarian = test system: OVCAR-5 ovarian

## C[C@@H]1COCCN1c1cc(C2([S@@](C)(=N)=O)CC2)nc(-c2ccnc3[nH]ccc23)n1
NCI-H23 lung
  GI50: 1.97 µM
  TGI: 5.21 µM
SK-MEL-28 melanoma
  GI50: 23.8 µM
  TGI: > 100 µM
NCI-H522 lung
  GI50: 10.8 µM
  TGI: > 100 µM
MDA-MB-468 breast
  GI50: 5.01 µM
  TGI: 27.3 µM
OVCAR-8 ovarian
  GI50: 7.62 µM
  TGI: 32.2 µM
KM12 colon
  GI50: 1.8 µM
  TGI: 27.1 µM
NCI-H226 lung
  GI50: 16.1 µM
  TGI: 77 µM
A549 NSCLC
  GI50: 3.93 µM
  TGI: 36.5 µM
ACHN renal
  GI50: 2.03 µM
  TGI: 17.5 µM
UACC-62 melanoma
  GI50: 4.45 µM
  TGI: 64.9 µM
MDA-MB-231 breast
  GI50: 6.06 µM
  TGI: > 100 µM
786-0 renal
  GI50: 2.32 µM
  TGI: 12.1 µM
HCT-116 colon
  GI50: 3.27 µM
  TGI: 56.5 µM
K-562 leukemia
  GI50: 3.3 µM
  TGI: 12 µM
SNB-19 CNS
  GI50: 9.29 µM
  TGI: > 100 µM
LOX IMVI melanoma
  GI50: 3.43 µM
  TGI: 14 µM
IGROV1 ovarian
  GI50: 3.47 µM
  TGI: 32.9 µM
COLO 205 colon
  GI50: 9.01 µM
  TGI: 62.6 µM
OVCAR-4 ovarian
  GI50: 5.37 µM
  TGI: 75.1 µM
DU-145 prostate
  GI50: 3.82 µM
  TGI: > 100 µM
MALME-3M melanoma
  GI50: 3.72 µM
  TGI: 23.6 µM
UO-31 renal
  GI50: 4.47 µM
  TGI: > 100 µM
MCF7 breast
  GI50: 1.27 µM
  TGI: > 100 µM
NCI-H460 NSCLC
  GI50: 1.38 µM
  TGI: 10.5 µM
A498 renal
  GI50: 1.12 µM
  TGI: 3.92 µM
NCI-H322M lung
  GI50: 1.78 µM
  TGI: 7.77 µM
SR leukemia
  GI50: 0.0145 µM
  TGI: 0.244 µM
SF-295 CNS
  GI50: 2.68 µM
  TGI: 13.7 µM
T-47D breast
  GI50: 14.7 µM
  TGI: > 100 µM
HS 578T breast
  GI50: 1.22 µM
  TGI: 3.37 µM
NCI/ADR-RES ovarian
  GI50: 61.8 µM
  TGI: > 100 µM
HOP-62 NSCLC
  GI50: 2.15 µM
  TGI: 9.45 µM
SF-539 CNS
  GI50: 2.16 µM
  TGI: 6.4 µM
MOLT-4 leukemia
  GI50: 1.35 µM
  TGI: 2.68 µM
CCRF-CEM leukemia
  GI50: 0.902 µM
  TGI: 2.26 µM
HOP-92 NSCLC
  GI50: 3.02 µM
  TGI: 13.1 µM
HCT-15 colon
  GI50: 4.48 µM
  TGI: > 100 µM
TK-10 renal
  GI50: 1.83 µM
  TGI: 6.26 µM
PC-3 prostate
  GI50: 7.65 µM
  TGI: > 100 µM
SK-MEL-5 melanoma
  GI50: 7.66 µM
  TGI: 25 µM
OVCAR-3 ovarian
  GI50: 4.62 µM
  TGI: > 100 µM
RPMI-8226 leukemia
  GI50: 1.82 µM
  TGI: 4.28 µM
EKVX NSCLC
  GI50: 9.1 µM
  TGI: 69.1 µM
HT29 colon
  GI50: 4.65 µM
  TGI: 26.9 µM
BT-549 breast
  GI50: 1.98 µM
  TGI: 7.43 µM
U251 glioblastoma
  GI50: 5.72 µM
  TGI: > 100 µM
HCC-2998 colon
  GI50: 1.1 µM
  TGI: 5.38 µM
M14 melanoma
  GI50: 2.44 µM
  TGI: 9.06 µM
HL-60(TB) leukemia
  GI50: 1.98 µM
  TGI: 3.68 µM
SNB-75 CNS
  GI50: 3.9 µM
  TGI: 51.8 µM
CAKI-1 renal
  GI50: 3.87 µM
  TGI: 29.6 µM
MDA-MB-435 melanoma
  GI50: 7.48 µM
  TGI: > 100 µM
SN12C renal
  GI50: 4.3 µM
  TGI: 50.1 µM
SK-OV-3 ovarian
  GI50: 3.29 µM
  TGI: 41.8 µM
SW-620 colon
  GI50: 10.6 µM
  TGI: > 100 µM
UACC-257 melanoma
  GI50: 41.3 µM
  TGI: > 100 µM
SF-268 CNS
  GI50: 5.75 µM
  TGI: 95.7 µM

## COc1ccc2c(c[n+](C)c3c4cc5c(cc4ccc23)OCO5)c1OC
NCI-H23 lung
  GI50: 1 µM
  TGI: 2.16 µM
SK-MEL-28 melanoma
  GI50: 1.9 µM
  TGI: 3.35 µM
NCI-H522 lung
  GI50: 1.44 µM
  TGI: 2.75 µM
MDA-MB-468 breast
  GI50: 0.365 µM
  TGI: 1.36 µM
OVCAR-8 ovarian
  GI50: 0.395 µM
  TGI: 1.43 µM
KM12 colon
  GI50: 1.47 µM
  TGI: 2.8 µM
NCI-H226 lung
  GI50: 1.83 µM
  TGI: 3.22 µM
A549 NSCLC
  GI50: 1.83 µM
  TGI: 3.27 µM
ACHN renal
  GI50: 1.82 µM
  TGI: 3.21 µM
MDA-MB-231 breast
  GI50: 0.721 µM
  TGI: 1.99 µM
786-0 renal
  GI50: 1.34 µM
  TGI: 2.63 µM
HCT-116 colon
  GI50: 0.399 µM
  TGI: 1.38 µM
K-562 leukemia
  GI50: 1.61 µM
  TGI: 2.97 µM
SNB-19 CNS
  GI50: 1.5 µM
  TGI: 2.84 µM
LOX IMVI melanoma
  GI50: 1.1 µM
  TGI: 2.31 µM
IGROV1 ovarian
  GI50: 1.62 µM
  TGI: 2.97 µM
COLO 205 colon
  GI50: 1.57 µM
  TGI: 2.92 µM
OVCAR-4 ovarian
  GI50: 1.5 µM
  TGI: 2.87 µM
DU-145 prostate
  GI50: 1.46 µM
  TGI: 2.77 µM
RXF 393 renal
  GI50: 1.57 µM
  TGI: 2.94 µM
OVCAR-5 ovarian
  GI50: 1.76 µM
  TGI: 3.16 µM
MALME-3M melanoma
  GI50: 0.748 µM
  TGI: 1.96 µM
UO-31 renal
  GI50: 1.4 µM
  TGI: 2.7 µM
MCF7 breast
  GI50: 1.13 µM
  TGI: 2.35 µM
NCI-H460 NSCLC
  GI50: 1.52 µM
  TGI: 2.85 µM
A498 renal
  GI50: 1.87 µM
  TGI: 3.39 µM
NCI-H322M lung
  GI50: 1.77 µM
  TGI: 3.19 µM
SR leukemia
  GI50: 0.174 µM
  TGI: 0.317 µM
SF-295 CNS
  GI50: 1.74 µM
  TGI: 3.15 µM
T-47D breast
  GI50: 1.63 µM
  TGI: 2.99 µM
HS 578T breast
  GI50: 1.55 µM
  TGI: 2.89 µM
NCI/ADR-RES ovarian
  GI50: 1.02 µM
  TGI: 2.59 µM
HOP-62 NSCLC
  GI50: 1.06 µM
  TGI: 2.25 µM
SF-539 CNS
  GI50: 1.63 µM
  TGI: 2.99 µM
MOLT-4 leukemia
  GI50: 0.163 µM
  TGI: 0.3 µM
CCRF-CEM leukemia
  GI50: 0.146 µM
  TGI: 0.278 µM
HOP-92 NSCLC
  GI50: 1.51 µM
  TGI: 2.85 µM
HCT-15 colon
  GI50: 0.825 µM
  TGI: 2.07 µM
TK-10 renal
  GI50: 1.42 µM
  TGI: 2.73 µM
PC-3 prostate
  GI50: 1.19 µM
  TGI: 2.42 µM
SK-MEL-5 melanoma
  GI50: 0.72 µM
  TGI: 2.04 µM
OVCAR-3 ovarian
  GI50: 0.362 µM
  TGI: 1.33 µM
RPMI-8226 leukemia
  GI50: 0.44 µM
  TGI: 1.46 µM
EKVX NSCLC
  GI50: 1.45 µM
  TGI: 2.76 µM
HT29 colon
  GI50: 1.68 µM
  TGI: 3.05 µM
BT-549 breast
  GI50: 0.68 µM
  TGI: 1.94 µM
U251 glioblastoma
  GI50: 0.866 µM
  TGI: 2.08 µM
HCC-2998 colon
  GI50: 1.59 µM
  TGI: 2.94 µM
M14 melanoma
  GI50: 1.59 µM
  TGI: 2.94 µM
HL-60(TB) leukemia
  GI50: 0.182 µM
  TGI: 0.324 µM
SNB-75 CNS
  GI50: 1.64 µM
  TGI: 3 µM
CAKI-1 renal
  GI50: 1.27 µM
  TGI: 2.56 µM
MDA-MB-435 melanoma
  GI50: 1.63 µM
  TGI: 2.99 µM
SN12C renal
  GI50: 0.615 µM
  TGI: 1.89 µM
SK-OV-3 ovarian
  GI50: 1.71 µM
  TGI: 3.13 µM
SW-620 colon
  GI50: 0.267 µM
  TGI: 0.758 µM
UACC-257 melanoma
  GI50: 1.23 µM
  TGI: 2.48 µM
SF-268 CNS
  GI50: 1.34 µM
  TGI: 2.62 µM
